Results from patent publication US9532970B2, “Compositions for anti-inflammatory, antioxidant effects and improved respiratory function by specific histone deacetylase inhibition” (priority 2014, dated 2017).
Read-outs that look alike come from different tables or passages of the source.

Test system: Horse PBMC

C[S@@+]([O-])CCCCN=C=S [LSF, (R)-1-Isothiocyanato-4-(methylsulfinyl)butane]
NES (MSigDB gene set MCLACHLAN DENTAL CARIES UP): −5.67
NES (MSigDB gene set MEISSNER BRAIN HCP WITH H3K4ME3 AND H3K27ME3): −5.6
NES (MSigDB gene set MILI PSEUDOPODIA HAPTOTAXIS UP): 4.81
NES (MSigDB gene set MODULE 45): −5.9
NES (MSigDB gene set MODULE 46): −6.22
NES (MSigDB gene set MODULE 75): −5.9
NES (MSigDB gene set MODULE 84): −7.87
NES (MSigDB gene set MRNA METABOLIC PROCESS): 4.19
NES (MSigDB gene set REACTOME GENERIC TRANSCRIPTION PATHWAY): 4.19
NES (MSigDB gene set RNA PROCESSING): 4.02
NES (MSigDB gene set SHEN SMARCA2 TARGETS UP): 5.39
NES (MSigDB gene set V$NFMUE1 Q6): 3.98
NES (MSigDB gene set WALLACE PROSTATE CANCER RACE UP): −5.66
NES (Reactome gene set ACTIVATION OF KAINATE RECEPTORS UPON GLUTAMATE BINDING): −2.56
NES (Reactome gene set ANTIGEN PROCESSING UBIQUITINATION PROTEASOME DEGRADATION): 2.7
NES (Reactome gene set ASSOCIATION OF TRIC CCT WITH TARGET PROTEINS DURING BIOSYNTHESIS): 2.62
NES (Reactome gene set CLASS A1 RHODOPSIN LIKE RECEPTORS): −2.68
NES (Reactome gene set CLEAVAGE OF GROWING TRANSCRIPT IN THE TERMINATION REGION): 3.33
NES (Reactome gene set CYTOKINE SIGNALLING IN IMMUNE SYSTEM): −2.84
NES (Reactome gene set DOWNSTREAM SIGNALING EVENTS OF B CELL RECEPTOR BCR): 3.12
NES (Reactome gene set G ALPHA1213 SIGNALLING EVENTS): −2.54
NES (Reactome gene set G ALPHA I SIGNALLING EVENTS): −2.41
NES (Reactome gene set G ALPHA SIGNALLING EVENTS): −2.82
NES (Reactome gene set GABA RECEPTOR ACTIVATION): −2.39
NES (Reactome gene set GENERIC TRANSCRIPTION PATHWAY): 4.23
NES (Reactome gene set GPCR DOWNSTREAM SIGNALING): −3.63
NES (Reactome gene set GPCR LIGAND BINDING): −2.67
NES (Reactome gene set HIV LIFE CYCLE): 2.41
NES (Reactome gene set IMMUNOREGULATORY INTERACTIONS BETWEEN A LYMPHOID AND A NON LYMPHOID CELL): −3.37
NES (Reactome gene set INTERFERON ALPHA BETA SIGNALING): −4
NES (Reactome gene set INTERFERON GAMMA SIGNALING): −3.9
NES (Reactome gene set INTERFERON SIGNALING): −3.18
NES (Reactome gene set LATE PHASE OF HIV LIFE CYCLE): 2.44
NES (Reactome gene set MHC CLASS II ANTIGEN PRESENTATION): −2.47
NES (Reactome gene set MRNA 3 END PROCESSING): 3.5
NES (Reactome gene set MRNA PROCESSING): 3.68
NES (Reactome gene set MRNA SPLICING): 3.09
NES (Reactome gene set OPIOID SIGNALLING): −2.55
NES (Reactome gene set PEPTIDE CHAIN ELONGATION): −2.43
NES (Reactome gene set PI3K EVENTS IN ERBB2 SIGNALING): 2.49
NES (Reactome gene set PI3K EVENTS IN ERBB4 SIGNALING): 2.52
NES (Reactome gene set PIP3 ACTIVATES AKT SIGNALING): 2.48
NES (Reactome gene set PROCESSING OF CAPPED INTRON CONTAINING PRE MRNA): 3.61
NES (Reactome gene set RECRUITMENT OF MITOTIC CENTROSOME PROTEINS AND COMPLEXES): 2.55
NES (Reactome gene set REGULATION OF MRNA STABILITY BY PROTEINS THAT BIND AU RICH ELEMENTS): 2.6
NES (Reactome gene set REGULATION OF ORNITHINE DECARBOXYLASE ODC): 2.45
NES (Reactome gene set RESPIRATORY ELECTRON TRANSPORT ATP SYNTHESIS BY CHEMIOSMOTIC COUPLING AND HEAT PRODUCTION BY UNCOULPLING PROTEINS): −2.69
NES (Reactome gene set RNA POL II TRANSCRIPTION): 3.32
NES (Reactome gene set SIGNALING BY GPCR): −3.35
NES (Reactome gene set SIGNALING BY RHO GTPASES): −2.87
NES (Reactome gene set TCA CYCLE AND RESPIRATORY ELECTRON TRANSPORT): −2.8
NES (Reactome gene set TRANSCRIPTION): 3.25
NES (Reactome gene set TRANSPORT OF MATURE TRANSCRIPT TO CYTOPLASM): 3.02
